Experimental data reported in publication PMC12048343, “Discovery of a small molecule secreted clusterin enhancer that improves memory in Alzheimer’s disease mice” (npj Drug Discovery, 2025).

Assays:
SH-SY5Y cells = assay: Cytotoxicity, MultiTox-Fluor (neurotoxicity); type: cell-based, human; conditions: up to 50 µM
Text: Cell viability and toxicity were simultaneously assessed using the MultiTox-Fluor Multiplex Cytotoxicity Assay (Cat# PRG9200, Fisher Scientific) according to the manufacturer’s protocol.

sCLU in SH-SY5Y cells = assay: sCLU levels in SH-SY5Y cells; type: cell-based, human; conditions: SH-SY5Y cells (Fig. S9A)
Method: Cell culture supernatant (2 μL) was added to a 384-well proxy plate preloaded with AlphaLISA HiBlock buffer (2 µL, 1X, CAT#AL004C, Perkin Elmer). Then an anti-sCLU antibody mixture (2 µL, mAb J84, biotinylated (10 nM, Cat# 3717-6-1000, Mabtech) and mAb CLU aa 22-227 (Cat#AF7084, R&D Systems), Acceptor bead conjugated (50 µg/mL, Cat#6772001, Perkin Elmer)) was added and incubated at room temperature for 1 hour. AlphaScreen Streptavidin Donor beads (2 µL, Cat#6760002S, Perkin Elmer) were added, incubated for an additional 30 min in the dark, and the plate was read in an Envision plate reader.

SH-SY5Y neuronal cells = assay: Oxygen consumption rate in SH-SY5Y cells; type: cell-based, human; conditions: 24 h, 8, 40 and 200 nM, dose-dependent
[1] = tested on: sirtuin 1 (SirT1) expression in SH-SY5Y cells; assay: SirT1 AlphaLISA in SH-SY5Y cell lysate; type: cell-based, human; conditions: 200 nM, 24 h
Method: Additional assays: The Aβ1-42 ELISA assay was performed on hippocampus brain homogenate according to the manufacturer’s protocol (Fisher KHB3441). Humanin in cell culture lysate was quantify by ELISA assay, according to the manufacturer’s protocol (MyBioSourc Cat# MBS7607247). SirT1 in cell culture lysate was quantify using AlphaLISA. Cell lysate (2 μL) was added to a 384-well proxy plate preloaded with 2 µL anti-SiRT1 antibody mixture (ABCAM catalog AB110304, biotinylated (10 nM) and ABCAM catalog AB104833, acceptor bead conjugated (50 µg/mL, Cat#6772001, Perkin Elmer)) was added and incubated at room temperature for 1 hour. AlphaScreen Streptavidin Donor beads (2 µL, Cat#6760002S, Perkin Elmer) were added, incubated for an additional 30 min in the dark, and the plate was read in an Envision plate reader.

3xTg-AD mice = assay: Barnes maze assessment of spatial learning and memory; type: in vivo, mouse; conditions: oral 15 mg/kg BID, 6 weeks; significant on Day 3 of training and in the 48-hour probe
Method: Male and female 3-month-old mice were administered DDL-357 via pipette feeding at a dose of 15 mg/kg BID (30 mg/kg/day). Mice were weighed before the first dose for the calculation of volume to be administered. The formulation used comprised DDL-357 as a 15 mg/mL solution dissolved in a strawberry flavored solution (propylene glycol/water/strawberry syrup, 2/1/1, v/v/v). ApoE4TR-5XFAD mice (7 mice, 3 females & 4 males-vehicle; 7 mice, 4females and 3 males – DDL357) were dosed for two weeks. 3xTg-AD mice (13 mice, 5 females & 8 males-vehicle; 13 mice, 4 females and 9 males- DDL357) were dosed for six weeks before entering Barnes Maze testing. At end of study, mice brain tissue and plasma were collected after euthanasia and perfusion. […]
Barnes Maze testing was performed as describe by Attar et al. Briefly, in a room with visual cues on the walls, mice are introduced in a circular maze containing 20 holes where 19 holes are closed during training and all 20 holes are closed during the probe trials. […] During the probe days, the target hole is closed, and spatial memory of the mouse is determined during a 90 s probe trial. […] Over the course of the training and probe trials, the software-calculated parameters included, but were not limited to, total distance traveled, speed, number of holes visited, latency to visiting the target/escape hole, percent time spent in the four quadrants of the maze.

Cc1sc2c(c1C)C(c1ccc(Cl)cc1)=N[C@@H](CC(=O)OC1CC1)c1nnc(C)n1-2 [DDL-357]
Ctox (SH-SY5Y cells): ≥ 50 µM | sCLU levels (sCLU in SH-SY5Y cells): increasing sCLU | oxygen consumption rate (SH-SY5Y neuronal cells): increased the oxygen consumption rate | sirtuin 1 (SirT1) expression [1]: significantly increased expression | Barnes maze performance (latency to escape hole) (3xTg-AD mice): performed better overall during both the training and probe phases
